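Growth conditions: 96-well plates. Treatment: test compound, 48 hours, 5 concentrations. Analysis: linear interpolation between bracketing concentrations; unreached endpoints set to highest concentration. At the TGI there is no net growth.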
Key:
Experiment in all cases: inhibition of tumour cell growth, NCI panel, 48 h
[1] = system: CAKI-1 renal
[2] = system: OVCAR-5 ovarian
[3] = system: MDA-MB-231 breast
[4] = system: OVCAR-8 ovarian
[5] = system: PC-3 prostate
[6] = system: NCI-H23 lung
[7] = system: NCI/ADR-RES ovarian
[8] = system: MCF7 breast
[9] = system: 786-0 renal
[10] = system: UACC-62 melanoma
[11] = system: HCC-2998 colon
[12] = system: HT29 colon
[13] = system: SW-620 colon
[14] = system: RPMI-8226 leukemia
[15] = system: MDA-MB-435
[16] = system: T-47D breast
[17] = system: NCI-H522 lung
[18] = system: SNB-19 CNS
[19] = system: NCI-H460 lung
[20] = system: A549 NSCLC
[21] = system: MALME-3M melanoma
[22] = system: HOP-92 NSCLC
[23] = system: SN12C renal
[24] = system: HCT-116 colon
[25] = system: SF-268 CNS
[26] = system: UACC-257 melanoma
[27] = system: OVCAR-4 ovarian
[28] = system: HCT-15 colon
[29] = system: M14 melanoma
[30] = system: EKVX NSCLC
[31] = system: HOP-62 NSCLC
[32] = system: BT-549 breast
[33] = system: SK-MEL-28 melanoma
[34] = system: NCI-H226 lung
[35] = system: SF-295 CNS
[36] = system: DU-145 prostate
[37] = system: CCRF-CEM leukemia
[38] = system: RXF 393 renal
[39] = system: KM12 colon
[40] = system: SK-OV-3 ovarian
[41] = system: SF-539 CNS
[42] = system: COLO 205 colon
[43] = system: SR leukemia
[44] = system: SK-MEL-5 melanoma
[45] = system: OVCAR-3 ovarian
[46] = system: MOLT-4 leukemia
[47] = system: SK-MEL-2 melanoma
[48] = system: TK-10 renal
[49] = system: HS 578T breast
[50] = system: ACHN renal
[51] = system: SNB-75 CNS
[52] = system: MDA-N
[53] = system: UO-31 renal
[54] = system: U251 CNS
[55] = system: K-562 leukemia
[56] = system: HL-60(TB) leukemia
[57] = system: IGROV1 ovarian
[58] = system: LOX IMVI melanoma

Measured: TGI

Nc1nc2ccc(NCc3ccc(C(=O)NC(CCC(=O)O)C(=O)O)cc3)cc2c(=O)[nH]1 (stereo not drawn)
39.9 µM: [50]
87.5 µM: [29]
> 100 µM: all other assays above
